Data published in patent US9469652B2, “ERK inhibitors” (Eli Lilly and Company, priority 2014, dated 2016).

Columns and labels:
[1] = tested on: human non-small cell lung cancer cells NCI-H441 (KRAS_G12V); assay: In vivo combination study, NCI-H441 NSCLC xenograft model; details: single agent
Method: (§1) More specifically, the compound of Example 1 is tested in combination with either the pan-RAF inhibitor compound or the CDK4/6 inhibitor compound in HCT116, a KRAS mutant colorectal cancer xenograft model. Also, the compound of Example 1 is tested in combination with either the CDK4/6 inhibitor compound or DC101 in NCI-H441, A549, and NCI-H2122, KRAS mutant non-small cell lung cancer (NSCLC) xenograft models.
(§2) Combination efficacy is also tested in three KRAS mutant NSCLC xenograft models including A549 (KRAS_G12S) in SCID mice as well as NCI-H441 (KRAS_G12V) and NCI-H2122 (KRAS_G12C) in athymic nude mice. Expand human non-small cell lung cancer cells NCI-H441 (ATCC, #CRL-5807) and NCI-H2122 (ATCC, #CRL-5985) in culture, harvest and inject 5×10e^6 cells in 200 μL of 1:1 HBSS+matrigel solution subcutaneously on to the rear right flank of female athymic nude mice (20-22 gm, Harlan Laboratories). Expand human non-small cell lung cancer cells A549 (ATCC, #CC1-185) in culture, harvest and inject 5×10e^6 cells in 200 μL of 1:1 HBSS+matrigel solution subcutaneously on to the rear right flank of female CB-17 SCID mice (18-20 gm, Taconic Farms). For all cell lines, measure tumor growth and body weight twice per week beginning the seventh day after the implantation. When average tumor sizes reach 200-300 mm^3, randomize animals and group into groups of five to seven animals. Prepare test compound in an appropriate vehicle (see below) and administer by oral gavage (compound of Example 1 and the CDK4/6 inhibitor compound) or intraperitoneally (DC101) for 21 to 28 days. Tumor response is determined by tumor volume measurement performed twice a week during the course of treatment. Vehicle used in these studies is 1% HEC/0.25% Tween® 80/0.05% Antifoam. The compound of Example 1 is formulated in 1% HEC/0.25% Tween® 80/0.05% Antifoam and the CDK4/6 inhibitor compound is formulated in 1% HEC in 25 mM sodium phosphate buffer, pH 2. […] In the same NCI-H441 xenograft model, DC101 in phosphate buffer is also administered intraperitoneally twice per week (BIW) as a single agent or in combination with the compound of Example 1, 50 mpk, QD for 28 days.

[2] = tested on: human colorectal cancer cells HCT116; assay: In vivo combination study, HCT116 KRAS mutant colorectal cancer xenograft model; details: oral, 28 days, single agent
Method: as §1
The HCT116 combination efficacy study is done in athymic nude rats. Expand human colorectal cancer cells HCT116 (ATCC, #CCL-247) in culture, harvest and inject 5×10e^6 cells in 200 μL of 1:1 HBSS+matrigel solution subcutaneously on to the rear right flank of female NIH nude rats (120-145 gm, Taconic Farms). Measure tumor growth and body weight twice per week beginning the seventh day after the implantation. When average tumor sizes reach 200-300 mm^3, randomize animals and group into groups of five to seven animals. Prepare test compound in an appropriate vehicle (see below) and administer by oral gavage for 21 to 28 days. Tumor response is determined by tumor volume measurement performed twice a week during the course of treatment. Vehicle used in this study is 1% HEC (hydroxy ethyl cellulose)/0.25% Tween® 80/0.05% Antifoam. The compound of Example 1 and the pan-RAF inhibitor compound are formulated in 1% HEC/0.25% Tween® 80/0.05% Antifoam. The CDK4/6 inhibitor compound is formulated in 1% HEC in 25 mM Sodium phosphate buffer, pH 2.

[3] = tested on: human non-small cell lung cancer cells NCI-H2122 (KRAS_G12C); assay: In vivo combination study, NCI-H2122 NSCLC xenograft model; set-up: species or system female athymic nude mice; details: single agent
Method: as §1, §2

[4] = tested on: human non-small cell lung cancer cells A549 (KRAS_G12S); assay: In vivo combination study, A549 NSCLC xenograft model; set-up: species or system female CB-17 SCID mice; details: single agent
Method: as §1, §2

SMILES | Delta T/C % ([1]; 50 mg/kg QD, oral, 28 days) [%] | tumor growth inhibition ([1]; 50 mpk) [%] | Delta T/C % ([2]; 20 mg/kg QD) [%] | TGI % ([2]; 20 mg/kg QD) [%] | Delta T/C % ([3]; 50 mg/kg QD, oral, 28 days) [%] | tumor growth inhibition ([3]; 50 mpk) [%] | Delta T/C % ([4]; 50 mg/kg QD, oral, 28 days) [%] | tumor growth inhibition ([4]; 50 mpk) [%] | Delta T/C % ([2]; 10 mg/kg BID) [%] | TGI % ([2]; 10 mg/kg BID) [%] | Delta T/C % ([2]; 20 mg/kg BID) [%] | TGI % ([2]; 20 mg/kg BID) [%]
CCN1CCN(Cc2ccc(Nc3ncc(F)c(-c4cc(F)c5nc(C)n(C(C)C)c5c4)n3)nc2)CC1 [CDK4/6 inhibitor, [5-(4-ethyl-piperazin-1-ylmethyl)-pyridin-2-yl]-[5-fluoro-4-(7-fluoro-3-isopropyl-2-methyl-3H-benzoimidazol-5-yl)-pyrimidin-2-yl]-amine, reference compound] | 19 | 81 | 24 | 76 | 47 | 53 | 49 | 51 | – | – | – | –
CNc1ncc2cc(-c3cc(NC(=O)NCCC(C)(C)C)c(F)cc3C)c(C)nc2n1 [pan-RAF inhibitor, 1-(3,3-dimethylbutyl)-3-(2-fluoro-4-methyl-5-(7-methyl-2-(methylamino)pyrido[2,3-d]pyrimidin-6-yl)phenyl)urea] | – | – | – | – | – | – | – | – | 71 | 29 | 32 | 68
